# Assay results as given in patent US20050002947A1, “In vitro bioassay employing laboratory-cultured larvae of strongyloides stercoralis” (University of the West Indies, priority 2003, published 2005).
# What was measured:
# S. stercoralis larvae [1] = experiment: Larval tolerance to emulsifiers; type: cell-based
# Text: Triton® X-100 (octylphenoxy polyethoxyethanol) is recommended for use as an emulsifier, where necessary. A concentration of 1-4% in 0.01% ELNS had no effect on larval mobility or mortality.
# Other suitable surfactants for dispersing plant extracts can be developed by routine testing according to the described procedures.
# S. stercoralis larvae [2] = experiment: Dye exclusion test using eosin to tell live from killed larvae; type: cell-based; conditions: for Percentage of S. stercoralis larvae stained using eosin in vitro: n~100
# Procedure: Dye exclusion tests have been used successfully to indicate viability in parasitic platyhelminths, and similar testing can be applied to S. stercoralis larvae. Use of 0.01% v/v eosin in LNS (ELNS) in a dye exclusion test indicated death of larvae in less than 10 minutes, and 0.01-0.03% ELNS had no effect on healthy individuals. The larvae typically survive for more than 100 hours in ELNS. Accordingly, LNS is a preferred medium in which to maintain larvae harvested from multiplication in coproculture and ELNS is a preferred medium for evaluating the effects of physiologically active materials, such as candidate anthelmintic materials, on the larvae. However, the skilled practitioner will recognize that any medium in which the larvae can be maintained for a convenient period of time, and any appropriate vital staining dye, can be used in the method of the invention.
# The results of a comparative test to establish the ability of a dye exclusion procedure using eosin to discriminate between live and killed larvae are presented in Table 1 below. FIG. 1 is a photomicrograph of a microscopic inspection field showing a number of larvae of S. stercoralis after exposure to an anthelmintic agent.
# S. stercoralis larvae [3] = experiment: Larval tolerance to methanol (solvent); type: cell-based, Strongyloides stercoralis; conditions: aqueous solutions containing methanol; cumulative percentage mortality
# Procedure: Active constituents of plants are typically extracted in organic solvents such as methanol. […] Studies of methanol toxicity for S. stercoralis indicate that a methanol concentration exceeding 5 μg/100 mL LNS (>50 times that detected in plant extracts using NMR analyses) is required to exert any significant effect on larval mortality.
compound,measurement,setting,value
octylphenoxy polyethoxyethanol [Triton® X-100],Effect on larval mobility,S. stercoralis larvae [1]; 1-4% in 0.01% ELNS,no effect
same,Effect on larval mortality,S. stercoralis larvae [1]; 1-4% in 0.01% ELNS,no effect
O=C1OC2(c3ccccc31)c1cc(Br)c(O)c(Br)c1Oc1c2cc(Br)c(O)c1Br [eosin],Time in which the dye exclusion test indicated death of larvae,S. stercoralis larvae [2]; 0.01% v/v eosin in LNS,less than 10 minutes
same,Percentage of S. stercoralis larvae stained using eosin in vitro,"S. stercoralis larvae [2]; heat killed larvae (60° C./30 min), eosin 0.01% (w/v), 0 min",0%
same,Percentage of S. stercoralis larvae stained using eosin in vitro,"S. stercoralis larvae [2]; heat killed larvae (60° C./30 min), eosin 0.01% (w/v), 10 min",100%
same,Percentage of S. stercoralis larvae stained using eosin in vitro,"S. stercoralis larvae [2]; heat killed larvae (60° C./30 min), eosin 0.03% (w/v), 0 min",0%
same,Percentage of S. stercoralis larvae stained using eosin in vitro,"S. stercoralis larvae [2]; heat killed larvae (60° C./30 min), eosin 0.03% (w/v), 10 min",100%
same,Percentage of S. stercoralis larvae stained using eosin in vitro,"S. stercoralis larvae [2]; living larvae, eosin 0.01% (w/v), 0 min",0%
same,Percentage of S. stercoralis larvae stained using eosin in vitro,"S. stercoralis larvae [2]; living larvae, eosin 0.01% (w/v), 10 min",1%
same,Percentage of S. stercoralis larvae stained using eosin in vitro,"S. stercoralis larvae [2]; living larvae, eosin 0.01% (w/v), 20 min",1%
same,Percentage of S. stercoralis larvae stained using eosin in vitro,"S. stercoralis larvae [2]; living larvae, eosin 0.01% (w/v), 30 min",2%
same,Percentage of S. stercoralis larvae stained using eosin in vitro,"S. stercoralis larvae [2]; living larvae, eosin 0.01% (w/v), 40 min",2%
same,Percentage of S. stercoralis larvae stained using eosin in vitro,"S. stercoralis larvae [2]; living larvae, eosin 0.01% (w/v), 50 min",2%
same,Percentage of S. stercoralis larvae stained using eosin in vitro,"S. stercoralis larvae [2]; living larvae, eosin 0.01% (w/v), 60 min",2%
same,Percentage of S. stercoralis larvae stained using eosin in vitro,"S. stercoralis larvae [2]; living larvae, eosin 0.01% (w/v), column headed only ""(min)"", after 60",2%
same,Percentage of S. stercoralis larvae stained using eosin in vitro,"S. stercoralis larvae [2]; living larvae, eosin 0.03% (w/v), 0 min",0%
same,Percentage of S. stercoralis larvae stained using eosin in vitro,"S. stercoralis larvae [2]; living larvae, eosin 0.03% (w/v), 10 min",1%
same,Percentage of S. stercoralis larvae stained using eosin in vitro,"S. stercoralis larvae [2]; living larvae, eosin 0.03% (w/v), 20 min",1%
same,Percentage of S. stercoralis larvae stained using eosin in vitro,"S. stercoralis larvae [2]; living larvae, eosin 0.03% (w/v), 30 min",2%
same,Percentage of S. stercoralis larvae stained using eosin in vitro,"S. stercoralis larvae [2]; living larvae, eosin 0.03% (w/v), 40 min",2%
same,Percentage of S. stercoralis larvae stained using eosin in vitro,"S. stercoralis larvae [2]; living larvae, eosin 0.03% (w/v), 50 min",2%
same,Percentage of S. stercoralis larvae stained using eosin in vitro,"S. stercoralis larvae [2]; living larvae, eosin 0.03% (w/v), 60 min",2%
same,Percentage of S. stercoralis larvae stained using eosin in vitro,"S. stercoralis larvae [2]; living larvae, eosin 0.03% (w/v), column headed only ""(min)"", after 60",3%
CO [methanol],Methanol concentration required to exert any significant effect on larval mortality,S. stercoralis larvae [3],exceeding 5 μg/100 mL LNS
Tween® 20,Toxicity to S. stercoralis larvae,S. stercoralis larvae [1]; 0.1-0.4% in 0.1% ELNS,toxic
